We go through 22 molecules from patent publication US7799785B2, “Substituted tetracyclic tetahydrofuran, pyrrolidine and tetrahydrothiophene derivatives” (Janssen Pharmaceutica NV, priority 2004, dated 2010).

This test deals with T1, NET (Rattus norvegicus, UniProt Q63380).
T1 construct: Cortex from rat brain was collected and homogenised; from tissue; host or cells: rat brain cortex homogenate/membranes
T1 sequence (Q63380 1-617): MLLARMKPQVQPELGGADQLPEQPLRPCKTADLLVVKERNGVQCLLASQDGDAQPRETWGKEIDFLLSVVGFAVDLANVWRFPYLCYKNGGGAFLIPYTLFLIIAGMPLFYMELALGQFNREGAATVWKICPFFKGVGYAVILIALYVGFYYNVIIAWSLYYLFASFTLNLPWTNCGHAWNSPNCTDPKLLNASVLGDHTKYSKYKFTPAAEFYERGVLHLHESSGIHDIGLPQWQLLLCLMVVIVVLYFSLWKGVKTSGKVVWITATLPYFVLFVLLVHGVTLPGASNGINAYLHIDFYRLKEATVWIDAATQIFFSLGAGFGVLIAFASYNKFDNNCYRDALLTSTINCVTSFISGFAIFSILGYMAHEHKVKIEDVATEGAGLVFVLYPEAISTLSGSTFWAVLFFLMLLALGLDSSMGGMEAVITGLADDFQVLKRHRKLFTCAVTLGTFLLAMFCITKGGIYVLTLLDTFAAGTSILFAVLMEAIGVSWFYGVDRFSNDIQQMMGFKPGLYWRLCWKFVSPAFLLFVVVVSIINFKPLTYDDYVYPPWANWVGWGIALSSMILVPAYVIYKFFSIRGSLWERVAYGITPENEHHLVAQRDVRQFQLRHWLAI
Nature of the test: In vitro determination of NET reuptake inhibition ([3H]Nixosetine binding, rat brain cortex membranes). How it is done:
In vitro Determination of NET Reuptake Inhibition
Cortex from rat brain was collected and homogenised using an Ultra-Turrax T25 and a Dual homogeniser in ice-cold homogenising buffer containing Tris, NaCl and KCl (50 mM, 120 mM and 5 mM, respectively, pH 7.4) prior to dilution to an appropriate protein concentration optimised for specific and non-specific binding. […] Membrane-bound activity was detected by filtration through a Packard Filtermate harvester onto GF/B Unifilterplates, washed with ice-cold Tris-HCl buffer, containing NaCl and KCl (50 mM, 120 mM and 4 mM; pH 7.4; 6×0.5 ml). Filters were allowed to dry for 24 h before adding scintillation fluid. Scintillation fluid was allowed to saturate filters for 24 h before counting in a Topcount scintillation counter. Percentage specific bound and competition binding curves were calculated using S-Plus software (Insightful).
Usually IC50 stands for the concentration at which inhibition is half-maximal. The molecule `O=C1CNC[C@H]2C[C@@H]3c4ccccc4Cc4ccc(F)cc4[C@H]3N12` [compound 12, (5aS,14bR,15aR)-7-fluoro-1,2,3,5a,10,14b,15,15a-octahydro-4H-dibenzo[3′,4′:6′,7′]cyclohepta[1′,2′:4,5]pyrrolo[1,2-a]pyrazin-4-one] had an IC50 of 3470 nM.

In turn, `CN(C)C[C@H]1C[C@@H]2c3ccccc3Oc3ccc(F)cc3[C@H]2N1` [compound 17, [(2R,3aR,12bS)-11-fluoro-2,3,3a,12b-tetrahydro-1H-dibenzo[2,3:6,7]oxepino[4,5-b]pyrrol-2-yl]-N,N-dimethylmethanamine] showed a half-maximal inhibitory concentration (IC50) of 7.41 nM. Still for that read-out and setting: the result for `O=C1NC[C@@H]2C[C@@H]3c4ccccc4Cc4ccc(F)cc4[C@H]3N12` [compound 15, (4aS,13bR,14aS)-6-fluoro-1,4a,9,13b,14,14a-hexahydrodibenzo[3′,4′:6′,7′]-cyclohepta[1′,2′:4,5]pyrrolo[1,2-c]imidazol-3(2H)-one] reads 2400 nM; that for `CN1C[C@H]2C[C@@H]3c4ccccc4Cc4ccc(F)cc4[C@H]3N2C1=O` [compound 7, (4aS,13bR,14aR)-6-fluoro-2-methyl-1,4a,9,13b,14,14a-hexahydrodibenzo-[3′,4′:6′,7′]cyclohepta[1′,2′:4,5]pyrrolo[1,2-c]imidazol-3(2H)-one], 891 nM; that for `CN(C)C[C@@H]1C[C@@H]2c3ccccc3Cc3ccc(F)cc3[C@H]2S1(=O)=O` [compound 22, [(2S,3aR,12bS)-11-fluoro-1,1-dioxido-3,3a,8,12b-tetrahydro-2H-dibenzo[3,4:6,7]-cyclohepta[1,2-b]thien-2-yl]-N,N-dimethylmethanamine], 4790 nM. The molecule `CN(C)CC1CO[C@@H]2c3cc(F)ccc3Cc3ccccc3[C@@H]12` (mixture of isomers) [compound 47, [(3aR,12bS)-11-fluoro-3,3a,8,12b-tetrahydro-2H-dibenzo[3,4:6,7]cyclohepta[1,2-b]furan-3-yl]-N,N-dimethylmethanamine] showed an IC50 of 11 nM. This IC50 lies about 440-fold lower than the previous one. In the case of `COCC(=O)N1[C@@H](CN(C)C)C[C@@H]2c3ccccc3Cc3ccc(F)cc3[C@H]21` [compound 10, [(2R,3aR,12bS)-11-fluoro-1-(methoxyacetyl)-1,2,3,3a,8,12b-hexahydrodibenzo-[3,4:6,7]cyclohepta[1,2-b]pyrrol-2-yl]-N,N-dimethylmethanamine], the IC50 was 4790 nM. Against the preceding molecule, the IC50 is about 440-fold higher. Same read-out and setting: next, `OCCN1CCN(C[C@H]2C[C@@H]3c4ccccc4Cc4ccc(F)cc4[C@H]3N2)CC1` [43a, 2-(4-{[(2R,3aR,12bS)-11-fluoro-1,2,3,3a,8,12b-hexahydrodibenzo[3,4:6,7]-cyclohepta[1,2-b]pyrrol-2-yl]methyl}-1-piperazinyl)ethanol]: > 10000 nM; `CN(C)C[C@H]1C[C@@H]2c3ccccc3Cc3ccc(F)cc3[C@H]2N1C` [compound 5, [(2R,3aR,12bS)-11-fluoro-1-methyl-1,2,3,3a,8,12b-hexahydrodibenzo[3,4:6,7]-cyclohepta[1,2-b]pyrrol-2-yl]-N,N-dimethylmethanamine]: 288 nM; `CNC[C@H]1C[C@@H]2c3ccccc3Cc3ccc(F)cc3[C@H]2N1C=O` [compound 38, (2R,3aR,12bS)-11-fluoro-2-[(methylamino)methyll]-3,3a,8,12b-tetrahydrodibenzo-[3,4: 6,7]-cyclohepta[1,2-b]pyrrole-1(2H)-carbaldehyde]: 490 nM.

As for `CN1CC(=O)N2[C@@H](C[C@@H]3c4ccccc4Cc4ccc(F)cc4[C@H]32)C1` [compound 4, (5aS,14bR,15aS)-7-fluoro-2-methyl-1,2,3,5a,10,14b,15,15a-octahydro-4H-dibenzo[3′,4′:6′,7′]cyclohepta[1′,2′:4,5]pyrrolo[1,2-a]pyrazin-4-one], the “NET Reuptake Inhibition” value is listed as <5. `CN(C)C[C@H]1C[C@@H]2c3ccccc3Cc3ccc(F)cc3[C@H]2S1` [compound 23, [(2R,3aR,12bS)-11-fluoro-3,3a,8,12b-tetrahydro-2H-dibenzo[3,4:6,7]cyclohepta-[1,2-b]thien-2-yl]-N,N-dimethylmethanamine] gave an IC50 of 28.2 nM. In other words, the double-digit nanomolar range. Still for that read-out and setting: the result for `CN1C[C@@H]2C[C@@H]3c4ccccc4Cc4ccc(F)cc4[C@H]3N2C1` [compound 1, (4aS,13bR,14aS)-6-fluoro-2-methyl-1,2,3,4a,9,13b,14,14a-octahydrodibenzo-[3′,4′:6′,7′]cyclohepta[1′,2′:4,5]pyrrolo[1,2-c]imidazole] reads 115 nM; that for `CN(C)C[C@H]1C[C@@H]2c3ccccc3Cc3ccc(F)cc3[C@H]2N1` [37a, [(2R,3aR,12bS)-11-fluoro-1,2,3,3a,8,12b-hexahydrodibenzo[3,4:6,7]cyclohepta-[1,2-b]pyr-rol-2-yl]-N,N-dimethylmethanamine], 7.94 nM. Take `CN(C)C[C@@H]1C[C@@H]2c3ccccc3Cc3ccc(F)cc3[C@H]2[S@@+]1[O-]` [compound 26, [(2S,3aR,12bS)-11-fluoro-1-oxido-3,3a,8,12b-tetrahydro-2H-dibenzo[3,4:6,7]-cyclohepta[1,2-b]thien-2-yl]-N,N-dimethylmethanamine]: the IC50 is > 10000 nM. On the same count and under the same terms, next, `COCCN1[C@@H](CN(C)C)C[C@@H]2c3ccccc3Cc3ccc(F)cc3[C@H]21` [compound 40, [(2R,3aR,12bS)-11-Fluoro-1-(2-methoxyethyl)-1,2,3,3a,8,12b-hexahydrodibenzo-[3,4:6,7]-cyclohepta[1,2-b]pyrrol-2-yl]-N,N-dimethylmethanamine]: 479 nM; `Fc1ccc2c(c1)[C@H]1N[C@@H](CN3CCOCC3)C[C@@H]1c1ccccc1C2` [compound 42, (2R,3aR,12bS)-11-fluoro-2-(4-morpholinylmethyl)-1,2,3,3a,8,12b-hexahydrodibenzo[3,4:6,7]cyclohepta[1,2-b]pyrrole]: 5500 nM. Still for that read-out and setting: the result for `CNC[C@H]1CC[C@@H]2c3ccccc3Cc3ccc(F)cc3[C@H]2O1` [compound 46, [(2R,4aR,13bS)-12-fluoro-2,3,4,4a,9,13b-hexahydrodibenzo[3,4:6,7]cyclohepta-[1,2-b]pyran-2-yl]-N-methylmethanamine] reads 398 nM; that for `CN1C[C@@H]2C[C@@H]3c4ccccc4Cc4ccc(F)cc4[C@H]3N2C1=O` [compound 16, (4aS,13bR,14aS)-6-fluoro-2-methyl-1,4a,9,13b,14,14a-hexahydrodibenzo-[3′,4′:6′,7′]cyclohepta[1′,2′:4,5]pyrrolo[1,2-c]imidazol-3(2H)-one], > 10000 nM. Turning to `OCCN1CCN(C[C@H]2C[C@@H]3c4ccccc4Oc4ccc(F)cc4[C@H]3N2)CC1` [compound 19, 2-(4-{[(2R,3aR,12bS)-11-fluoro-2,3,3a,12b-tetrahydro-1H-dibenzo[2,3:6,7]-oxepino[4,5-b]pyrrol-2-yl]methyl}-1-piperazinyl)ethanol], the concentration for half-maximal inhibition (IC50) is > 10000 nM.

As for `OC1CCN(C[C@H]2C[C@@H]3c4ccccc4Oc4ccc(F)cc4[C@H]3N2)C1` (stereo partly drawn) [compound 20, 1-{[(2R,3aR,12bS)-11-fluoro-2,3,3a,12b-tetrahydro-1H-dibenzo[2,3:6,7]oxepino-[4,5-b]pyrrol-2-yl]methyl}-3-pyrrolidinol], the IC50 is 417 nM. That is a sub-micromolar value. Same read-out and setting: next, `CN(C)CC1CO[C@H]2c3cc(F)ccc3Cc3ccccc3[C@@H]12` (mixture of isomers) [compound 48, [(3aR,12bR)-11-fluoro-3,3a,8,12b-tetrahydro-2H-dibenzo[3,4:6,7]cyclohepta[1,2-b]furan-3-yl]-N,N-dimethylmethanamine]: 224 nM.
